Among the data in publication PMC6136712, “Ex vivo drug sensitivity testing as a means for drug repurposing in esophageal adenocarcinoma” (PLoS ONE, 2018) are DSS and EC50 values, retold here.

Counter-ions that a name gives are not always drawn.

The first assay has as its system normal esophageal epithelium cell line EACN42. The experiment in a line: FDA library drug sensitivity testing (CellTiter-Glo, 72 h), normal control cells. It is filed as cell-based, human. The arrangement: key to DSS: modified drug sensitivity score (DSSmod) from dose-response curve fit.
Settings: not given
Here is the method:
The normal esophageal epithelium cell line EACN42 was established in the Capobianco laboratory. The cell lines was derived from human normal epithelium and immortalized using HPV E6-E7.
Drug sensitivity testing (DST) was performed as described previously. […] Individual drugs were dissolved in 100% DMSO and tested in duplicates starting at a maximal test concentration of 10μM then over a 20,000-fold concentration range to generate dose response curves. Wells with assay buffer containing DMSO served as negative controls. 1000 exponentially growing cells were seeded per well in 384-well micro-titer plates and incubated in the presence of compounds in a humidified environment at 37°C and 5% CO2. After 72 hours of treatment, cell viability was assessed by measuring ATP levels via bioluminescence (CellTiter-Glo, Promega) according to manufactures recommendations. Interpretation of curve parameters was performed according to the modified drug sensitivity scoring (DSSmod) function developed by Swords et al. […] Given in this way, the sDSSmod incorporated information on each drug’s potency, efficacy, effect range and therapeutic index, making it possible to prioritize compounds over multiple parameters using a single numerical metric. […] All calculations and scoring routines are implemented in MatLab and additional curve fitting and statistical analyses are performed in GraphPad prism.
(ATP-based viability assays read luminescence as a measure of living cells.)
`O=P1(N(CCCl)CCCl)NCCCO1` (centres unmarked) [Cyclophosphamide monohydrate] returned a DSS of 0.

The same assay, now with this note: EACN42 normal esophageal cells, 72 h, cell viability (ATP), max test concentration 10μM.
As usually defined, the EC50 is the concentration that produces a half-maximal response. For `Cl.N=C(N)NCCC[C@H](N)C(=O)O` [L-Arginine HCl], a half-maximal response (EC50) required 10 nM.

Still in this assay, the particulars now being: Homo sapiens, 72 h, EACN42 normal esophageal cells, cell viability (ATP), max test concentration 10μM.
In turn, `Clc1ccc(C(c2ccccc2Cl)C(Cl)Cl)cc1` (centres unmarked) [Mitotane] displayed an EC50 of 6 nM. The same measure, in the same setting: to `CC[C@@H]1/C=C(\C)C[C@H](C)C[C@H](OC)[C@H]2O[C@@](O)(C(=O)C(=O)N3CCCC[C@H]3C(=O)O[C@H](/C(C)=C/[C@@H]3CC[C@H](Cl)[C@H](OC)C3)[C@H](C)[C@@H](O)CC1=O)[C@H](C)C[C@@H]2OC` [Pimecrolimus] belongs 5300 nM; to `CS(=O)(=O)CCNCc1ccc(-c2ccc3ncnc(Nc4ccc(OCc5cccc(F)c5)c(Cl)c4)c3c2)o1` [Lapatinib], 40 nM; to `CCCS(=O)(=O)Nc1ccc(F)c(C(=O)c2c[nH]c3ncc(-c4ccc(Cl)cc4)cc23)c1F` [Vemurafenib], 50 nM.

The same assay, now with this note: drug sensitivity score, EACN42 normal esophageal cells, 72 h.
`Clc1ccc(C(c2ccccc2Cl)C(Cl)Cl)cc1` (centres unmarked) [Mitotane] displayed a DSS of 0.

For `CNC(=O)c1ccc(N2C(=S)N(c3ccc(C#N)c(C(F)(F)F)c3)C(=O)C2(C)C)cc1F` [Enzalutamide], the DSS came out at 0.

With `O=C1CCC(N2C(=O)c3ccccc3C2=O)C(=O)N1` (centres unmarked) [Thalidomide], the DSS is on record as 0. Same read-out and setting: as for `CN(N=O)C(=O)N[C@H]1C(O)O[C@H](CO)[C@@H](O)[C@@H]1O` (mixture of isomers) [Streptozotocin], the figure is 0; as for `Cl.N=C(N)NCCC[C@H](N)C(=O)O` [L-Arginine HCl], 0. The molecule `O=C(O)CCCN1CCC(O[C@@H](c2ccc(Cl)cc2)c2ccccn2)CC1.O=S(=O)(O)c1ccccc1` [Bepotastine Besilate] returned a DSS of 0. The same measure, in the same setting: to `C[C@]12CC[C@@H]3c4ccc(O)cc4C[C@@H](CCCCCCCCC[S+]([O-])CCCC(F)(F)C(F)(F)F)[C@H]3[C@@H]1CC[C@@H]2O` (some centres unmarked) [Fulvestrant] belongs 0; to `Cc1cccc(N(C)C(=S)Oc2ccc3ccccc3c2)c1` [Tolnaftate], 0; to `CC[C@@H]1/C=C(\C)C[C@H](C)C[C@H](OC)[C@H]2O[C@@](O)(C(=O)C(=O)N3CCCC[C@H]3C(=O)O[C@H](/C(C)=C/[C@@H]3CC[C@H](Cl)[C@H](OC)C3)[C@H](C)[C@@H](O)CC1=O)[C@H](C)C[C@@H]2OC` [Pimecrolimus], 1.11.

In the case of `CS(=O)(=O)c1ccc(C(=O)Nc2ccc(Cl)c(-c3ccccn3)c2)c(Cl)c1` [Vismodegib], the DSS was 0. Consider `CC1=C(/C=C/C(C)=C/C=C/C(C)=C/C(=O)O)C(C)(C)CCC1` [Tretinoin], for which the DSS worked out at 0. Still for that read-out and setting: to `CN(C)c1nc(N(C)C)nc(N(C)C)n1` [Altretamine] belongs 0; to `C[C@]12CC[C@H](O)CC1=CC[C@@H]1[C@@H]2CC[C@]2(C)C(c3cccnc3)=CC[C@@H]12` [Abiraterone], 0.

Take `COc1nc(N)nc2c1ncn2[C@@H]1O[C@H](CO)[C@@H](O)[C@@H]1O` [Nelarabine]: the DSS is 0. Still for that read-out and setting: to `NCCC(O)(P(=O)([O-])O)P(=O)([O-])O.[Na+].[Na+]` [Pamidronate Disodium] belongs 0; to `CNNCc1ccc(C(=O)NC(C)C)cc1` [Procarbazine HCl], 0.

Turning to `Cc1ccc(-c2cc(C(F)(F)F)nn2-c2ccc(S(N)(=O)=O)cc2)cc1` [Celecoxib], the DSS came to 0. On the same count and under the same terms, as for `CCOC(=O)C1=C[C@]2(CC)CCCN3CCc4c(n1c1ccccc41)[C@@H]32` [Vinpocetine], the figure is 0.

As to `CS(=O)(=O)CCNCc1ccc(-c2ccc3ncnc(Nc4ccc(OCc5cccc(F)c5)c(Cl)c4)c3c2)o1` [Lapatinib], the DSS was determined as 0. The same measure, in the same setting: to `CC(C)C(=O)Nc1ccc([N+](=O)[O-])c(C(F)(F)F)c1` [Flutamide] belongs 0; to `CNC(=O)c1ccccc1Sc1ccc2c(/C=C/c3ccccn3)n[nH]c2c1` [Axitinib], 0; to `CCCS(=O)(=O)Nc1ccc(F)c(C(=O)c2c[nH]c3ncc(-c4ccc(Cl)cc4)cc23)c1F` [Vemurafenib], 0. On the same count and under the same terms, as for `C[C@]12CC[C@@H]3c4ccc(O)cc4CC[C@H]3[C@@H]1CCC2=O` [Estrone], the figure is 0; as for `C[C@@H]1CCN(C(=O)CC#N)C[C@@H]1N(C)c1ncnc2[nH]ccc12` [Tofacitinib citrate], 0.

Regarding `CN1C2=CC(=O)/C(=N\NC(N)=O)C=C2CC1S(=O)(=O)[O-].[Na+]` (centres unmarked) [Carbazochrome sodium sulfonate], the DSS is on record as 0.

For the molecule `CCN[C@H]1C[C@H](C)S(=O)(=O)c2sc(S(N)(=O)=O)cc21` [Dorzolamide HCL], the DSS was found to be 0.01.
